# Entries after “also recorded” stand apart in the source; their conditions may differ. Like-named read-outs stand apart in the source and are kept apart here.
# Columns and labels:
# [1] = tested on: LRAT and ARAT catalysed retinol esterification; assay: in vitro Microsomal Assay, overall verdict on retinol esterification (LRAT and ARAT); details: verdict on the table results
# Method: (§3) A solution containing 0.1M sodium phosphate pH 7 buffer, 5mM dithiothreitol, 2 mg/ml bovine serum albumin, 40 micromolar palmitoyl CoA, 40 micromolar dilauroyl phosphatidyl choline, 10 micromolar retinol and a test compound or solvent blank, was incubated for 1 hour at 37°C with a microsomal fraction isolated from bovine retinal pigment epithelial cells. After incubation, the reaction was quenched by addition of an equal volume of ethanol, and the retinyl esters formed (retinyl palmitate from the ARAT catalysed reaction, and retinyl laurate from the LRAT catalysed reaction) were extracted with hexane.
# [2] = biological target: T1, lecithin retinol acyl transferase (LRAT) (Bos taurus, UniProt Q9BGL2); assay: in vitro Microsomal Assay of retinol esterification, LRAT catalysed (retinyl laurate formation); details: for % INHIB. LRAT: Table 5; for % INHIBITION, LRAT: Table 6A, 100µM
# T1 sequence (Q9BGL2 1-230): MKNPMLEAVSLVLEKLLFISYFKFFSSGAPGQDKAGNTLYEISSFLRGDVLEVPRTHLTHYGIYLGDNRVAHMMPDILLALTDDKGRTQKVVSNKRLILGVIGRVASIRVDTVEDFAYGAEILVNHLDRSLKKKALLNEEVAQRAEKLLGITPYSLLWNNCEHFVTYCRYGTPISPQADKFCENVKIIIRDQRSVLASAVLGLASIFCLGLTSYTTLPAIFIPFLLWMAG
# Method: as §3
# [3] = tested on: acyl CoA retinol transferase (ARAT); assay: in vitro Microsomal Assay of retinol esterification, ARAT catalysed (retinyl palmitate formation)
# Method: as §3
# [4] = tested on: procollagen-I synthesis in human dermal fibroblasts; assay: Dot blot assay for procollagen-I protein in dermal fibroblast conditioned medium; format: cell-based; details: 24 hours, control = 100%
# Method: (§1) Primary human foreskin fibroblasts at passage 2 (P2) were seeded into 12-well plates at 10000 cells/cm^2 and maintained for 24 hours in an atmosphere of 5% carbon dioxide and 4% oxygen in Dulbeccos Modified Eagles Medium (DMEM) supplemented with 10% foetal calf serum. After this time the cells were washed with serum free DMEM and then incubated in fresh serum free DMEM for a further 60 hours. The fibroblast monolayers were then washed again with serum free DMEM. Test reagents and vehicle controls were added to the cells in triplicate in a final volume of 0.4ml/well fresh serum free DMEM and incubated for a further 24 hours. This fibroblast conditioned medium was either analysed immediately or snap frozen in liquid nitrogen and stored at -70°C for future analysis. The cells were then counted and data from the dot-blot analysis subsequently standardised to cell number. […]
# (§2) At the end of this time the exposed screen was scanned by a phosphorimager (Molecular Dynamics Phosphorimager SF) using ImageQuant™ software. Dot intensity was assessed by computer-assisted image analysis using the quantification tools in ImageQuant™, standardised to cell number and the effects of various test reagents on decorin and procollagen-I synthesis were determined relative to a vehicle treated control value of 100 arbitrary units. […]
# [5] = tested on: decorin synthesis in human dermal fibroblasts; assay: Dot blot assay for decorin protein in dermal fibroblast conditioned medium; format: cell-based; details: 24 hours, relative to vehicle control = 100
# Method: as §1, §2
molecule,measurement,setting,value
CCCCCCCCCCCCC/C=C/[C@@H](O)[C@H](CO)NC(C)=O [Acetyl Sphingosine],retinol esterification inhibition (result in words),[1],potent retinol esterification inhibitors
same,% INHIB. LRAT,[2]; 10 μM,10%
same,% INHIB. LRAT,[2]; 100 μM,50%
same,% INHIB. ARAT,"[3]; Table 5, 10 μM",19%
same,% INHIB. ARAT,"[3]; Table 5, 100 μM",62%
CC1=CCCC(C)(C)C1/C=C/C(C)O (stereo not drawn) [Alpha ionol],inhibition at 100 µM,"[2]; read-out: % INHIBITION, LRAT",0%
CCC(=O)/C=C/C1C(C)=CCCC1(C)C (stereo not drawn) [Alpha methyl ionone],"% INHIBITION, LRAT",[2],77%
same,"% INHIBITION, ARAT","[3]; Table 6A, 100µM",67%
C/C=C/C(=O)C1=C(C)CCCC1(C)C [Beta damascone],inhibition at 10 µM,"[2]; read-out: % INHIBITION, LRAT",52%
same,inhibition at 100 µM,"[2]; read-out: % INHIBITION, LRAT",92%
CC1=C(/C=C/C(C)O)C(C)(C)CCC1 (stereo not drawn) [Beta ionol],inhibition at 100 µM,"[2]; read-out: % INHIBITION, LRAT",0%
CC1=CCC(CCC(C)CO)C1(C)C (centres unmarked) [Brahmanol],inhibition at 100 µM,"[2]; read-out: % INHIBITION, LRAT",75%
same,"% INHIBITION, ARAT","[3]; Table 6A, 100µM",70%
CC12CCC(CC1=O)C2(C)C (centres unmarked) [Camphor],inhibition at 100 µM,"[2]; read-out: % INHIBITION, LRAT",0%
same,"% INHIBITION, ARAT","[3]; Table 7, 100 µM",0%
C=C(C)C1CC=C(C)C(=O)C1 (centres unmarked) [Carvone],inhibition at 100 µM,"[2]; read-out: % INHIBITION, LRAT",0%
same,"% INHIBITION, ARAT","[3]; Table 7, 100 µM",0%
O=CC=Cc1ccccc1 [Cinnamaldehyde],inhibition at 100 µM,"[2]; read-out: % INHIBITION, LRAT",0%
same,"% INHIBITION, ARAT","[3]; Table 7, 100 µM",0%
C/C=C/C(=O)C1=C(C)C=CCC1(C)C [Damascenone],inhibition at 10 µM,"[2]; read-out: % INHIBITION, LRAT",29%
same,inhibition at 100 µM,"[2]; read-out: % INHIBITION, LRAT",79%
C/C=C/C(=O)C1C(C)C=CCC1(C)C (centres unmarked) [Delta damascone],inhibition at 10 µM,"[2]; read-out: % INHIBITION, LRAT",64%
same,inhibition at 100 µM,"[2]; read-out: % INHIBITION, LRAT",95%
CC(=O)CCC1C(C)=CCCC1(C)C (stereo not drawn) [Dihydro alpha ionone],"% INHIBITION, ARAT","[3]; Table 7, 100 µM",13%
CCOC(=O)C1=C(C)C=CCC1(C)C [Ethyl saffranate],"% INHIBITION, LRAT",[2],49%
CC12CCC(CC1)C(C)(C)O2 [Eucalyptol],inhibition at 100 µM,"[2]; read-out: % INHIBITION, LRAT",0%
same,"% INHIBITION, ARAT","[3]; Table 7, 100 µM",0%
CC(C)=CCCC(C)=CCCC(C)=CCO [Farnesol],retinol esterification inhibition (result in words),[1],inhibit retinol esterification
same,inhibition at 10 µM,[2]; read-out: % INHIB. LRAT,10%
same,inhibition at 100 µM,[2]; read-out: % INHIB. LRAT,43%
same,% INHIB. ARAT,"[3]; Table 8, 10 µM",20%
same,% INHIB. ARAT,"[3]; Table 8, 100 µM",43%
CC12CCC(C1)C(C)(C)C2O (centres unmarked) [Fenchyl alcohol],"% INHIBITION, ARAT","[3]; Table 7, 100 µM",12%
CC(=O)/C(C)=C/C1C(C)=CCCC1(C)C (centres unmarked) [Gamma methyl ionone],"% INHIBITION, LRAT",[2],38%
CC(C)=CCC/C(C)=C/CC/C(C)=C/CC/C(C)=C/CO [Geranyl Geraniol],retinol esterification inhibition (result in words),[1],inhibit retinol esterification; also recorded: potent inhibitor of retinol esterification
same,inhibition at 10 µM,[2]; read-out: % INHIB. LRAT,16%
same,inhibition at 100 µM,[2]; read-out: % INHIB. LRAT,77%
same,% INHIB. ARAT,"[3]; Table 8, 10 µM",38%
same,% INHIB. ARAT,"[3]; Table 8, 100 µM",81%
CC1=CCCC(C)(C)C1/C=C/C(=O)CC(C)C (centres unmarked) [Isobutyl ionone],"% INHIBITION, LRAT",[2],45%
CC1=CC(C)C(CO)C(C)C1 (centres unmarked) [Isocyclogeraniol],inhibition at 100 µM,"[2]; read-out: % INHIBITION, LRAT",16%
same,"% INHIBITION, ARAT","[3]; Table 7, 100 µM",18%
CC=CC(=O)C1CCC(C)(C)C=C1C (centres unmarked) [Isodamascone],"% INHIBITION, LRAT",[2],92%
same,"% INHIBITION, ARAT","[3]; Table 6A, 100µM",80%
"CCCCC/C=C\C/C=C\CCCCCCCC(=O)N(CCO)CCO [Linoleamide-DEA (LODEA), Linoleamide-DEA]",retinol esterification inhibition (result in words),[1],potent retinol esterification inhibitors
same,inhibition at 10 µM,[2]; read-out: % INHIB. LRAT,11%
same,inhibition at 100 µM,[2]; read-out: % INHIB. LRAT,51%
"CCCCC/C=C\C/C=C\CCCCCCCC(=O)NCCO [Linoleamide-MEA (LOMEA), Linoleamide-MEA]",retinol esterification inhibition (result in words),[1],potent retinol esterification inhibitors
CC(C)(O)CCCC1=CCC(C=O)CC1 (centres unmarked) [Lyral],"% INHIBITION, ARAT","[3]; Table 6A, 100µM",76%
CC(C)[C@@H]1CC[C@@H](C)CC1=O [Mentone],inhibition at 100 µM,"[2]; read-out: % INHIBITION, LRAT",0%
Cc1ccc(C(C)C)c(O)c1 [Thymol],inhibition at 100 µM,"[2]; read-out: % INHIBITION, LRAT",0%
same,"% INHIBITION, ARAT","[3]; Table 7, 100 µM",0%
CC(=O)c1cc2c(cc1C)C(C)(C)C(C)CC2(C)C (centres unmarked) [Tonalid],inhibition at 100 µM,"[2]; read-out: % INHIBITION, LRAT",33%
same,"% INHIBITION, ARAT","[3]; Table 6A, 100µM",50%
CC(=O)c1cc2c(cc1C)C(C)(C)[C@H](C)[C@H]2C(C)C [Traseolide],"% INHIBITION, ARAT","[3]; Table 6A, 100µM",41%
COc1cc(C=O)ccc1O [Vanillin],inhibition at 100 µM,"[2]; read-out: % INHIBITION, LRAT",0%
same,"% INHIBITION, ARAT","[3]; Table 7, 100 µM",0%
Nc1ncnc2nc[nH]c12 [adenine],inhibition at 100 µM,[2]; read-out: % INHIB. LRAT,0%
same,% INHIB. ARAT,"[3]; Table 5, 100 μM",0%
CC=CC(=O)C1C(C)=CCCC1(C)C (stereo not drawn) [alpha damascone],inhibition at 10 µM,"[2]; read-out: % INHIBITION, LRAT",87%
same,inhibition at 100 µM,"[2]; read-out: % INHIBITION, LRAT",98%
same,"% INHIBITION, ARAT","[3]; Table 6A, 100µM",83%
same,"% INHIBITION, ARAT","[3]; Table 6B, 10µM",67%
O=C(NCO)N(CO)C1(CO)C(=O)NC(=O)N1CO (centres unmarked) [diazolidinyl urea],inhibition at 100 µM,[2]; read-out: % INHIB. LRAT,0%
same,% INHIB. ARAT,"[3]; Table 5, 100 μM",0%
Cc1ncc(C[n+]2csc(CCO)c2C)c(N)n1 [thiamine],inhibition at 100 µM,[2]; read-out: % INHIB. LRAT,0%
same,% INHIB. ARAT,"[3]; Table 5, 100 μM",0%
"CC1=C(/C=C/C(C)=C/C=C/C(C)=C/C(=O)O)C(C)(C)CCC1 [trans Retinoic acid, reference compound]",Procollagen 1,[4]; 0.01 µM trans Retinoic acid,102.8%
N[C@@H](Cc1c[nH]c2ccccc12)C(=O)O [tryptophan],inhibition at 100 µM,[2]; read-out: % INHIB. LRAT,0%
same,% INHIB. ARAT,"[3]; Table 5, 100 μM",0%
O=c1cc[nH]c(=O)[nH]1 [uracil],inhibition at 100 µM,[2]; read-out: % INHIB. LRAT,0%
same,% INHIB. ARAT,"[3]; Table 5, 100 μM",0%
Ceramide 6,Decorin,[5]; 0.01 µM Ceramide 6,101.2%
Sandalone,"% INHIBITION, LRAT",[2],12%
same,"% INHIBITION, ARAT","[3]; Table 6A, 100µM",23%
Sandanol,"% INHIBITION, LRAT",[2],43%
same,"% INHIBITION, ARAT","[3]; Table 6A, 100µM",15%
conjugated linoleic acid [CLA],Decorin,[5]; 0.1 µM CLA,96.8%
same,Procollagen 1,[4]; 0.1 µM CLA,78.9%
disodium cocamphodiacetate,% INHIB. LRAT,[2]; 100 μM,0%
